This note sets out measurements from patent US20120021012A1, “NOVEL PHARMACEUTICAL USES FOR NANOPARTICLES” (CENTRE NATIONAL DE LA RECHERCHE SCIENTIFIQUE (C.N.R.S), priority 2008, published 2012).

Structures are written as SMILES.

This assay has as its system human squamous carcinoma cell line HSC-2. Nature of the assay: MTT cell survival assay, HSC human cancer cell line. It counts as cell-based. The settings on record: paclitaxel applied 72 hours, AT84 and SG lines (FIG. 4). The protocol:
Cell survival was measured using a colorimetric method with 3-(4,5-dimethylthiazol-2-yl)-2,5-diphenyltetrazolium bromide (MTT). This molecule of yellow colour is reduced by mitochondrial dehydrogenase enzymes to a blue-coloured salt. This allows cell viability to be quantified in response to a treatment.
Cell survival was measured before and after exposure to different concentrations of SiC nanoparticles (0.1-0.5-1 mg/mL in a suspension of RPMI medium 10% FCS).
The cells were cultured in 96-well plates in the presence of SiC nanoparticles for 18 hours after which the media were replaced by standard culture media without any nanoparticles (RPMI medium 10% FCS, Sigma).
Cell viability was measured after different times (24, 48 and 72 hours). […]
Cell viability was measured by the difference in optical density at wavelengths of 450 and 504 nm, using a spectrophotometer connected to a computer system (Power Wave, Bio-Tek Instrument Inc.). The measured absorbency is then directly proportional to the number of living cells. The results are expressed as percentage survival measured under the initial conditions before exposure of the cells to the SiC nanoparticles. […]
Cell survival was measured using a colorimetric method with 3-(4,5-diemthylthiazol-2-yl)-2,5-diphenyltetrazolium bromide (MTT) such as described above in Example 1. […]
Cell viability was measured after 72 hours. […]
A general note: Tetrazolium dyes change colour on reduction, which living cells bring about.

Regarding `CC(=O)O[C@H]1C(=O)[C@@]2(C)[C@H]([C@H](OC(=O)c3ccccc3)[C@]3(O)C[C@H](OC(=O)[C@H](O)[C@@H](NC(=O)c4ccccc4)c4ccccc4)C(C)=C1C3(C)C)[C@]1(OC(C)=O)CO[C@@H]1C[C@@H]2O` [paclitaxel], the “inhibition percentages of cell survival compared with the SiC nanoparticles” value is on record as “of the same order”.
